Measurements reported in patent US20170106058A1, “PHARMACEUTICAL COMPOSITION AGAINST CHRONIC BACTERIAL INFECTIONS” (Lysando AG, priority 2014, published 2017).

Assays:
[1] = system: P. aeruginosa PAl255 persisters; assay: Persister killing assay, isolated persister fraction of P. aeruginosa PAl255 (cystic fibrosis isolate); assay type: cell-based
Method: Persister killing—Planktonic persister cells were isolated from a stationary phase culture as described e.g. in Chen et al., 2011(Chen X, Zhang M, Zhou C, Kallenbach N R, Ren D. 2011. Control of bacterial persister cells by Trp/Arg-containing antimicrobial peptides. Appl Environ Microbiol 77:4878-4885.). Briefly, an overnight culture of P. aeruginosa PA14 and PA1255 (a cystic fibrosis isolate) was inoculated each in 50 ml 1:20 Trypticase Soy Broth (TSB). After 48 h of growth at 37° C., the culture was treated with ofloxacin at a final concentration of 10 μg/ml (5× MIC) for 5 hours at 37° C., while shaking at 200 rpm. The persister cells surviving this antibiotic treatment were isolated by centrifugation (5250 g, 15 min, 4° C.) and the cell pellet was washed twice with 20 mM HEPES buffer. Prior to treatment, cells were resuspended in the same volume of 20 mM HEPES buffer. A persister killing assay was performed as described e.g. by De Groote et al., 2009 (De Groote V N, Verstraeten N, Fauvart M, Kint C I, Verbeeck A M, Beullens S, Cornelis P, Michiels J. 2009. Novel persistence genes in Pseudomonas aeruginosa identified by high-throughput screening. FEMS Microbiol Lett 297:73-79). […] The number of persisters was determined after 72 h incubation to allow complete resuscitation of all surviving persisters. […]

[2] = system: P. aeruginosa PA14 persisters; assay: Persister killing assay, isolated persister fraction of P. aeruginosa PA14; assay type: cell-based
Method: Persister killing—Planktonic persister cells were isolated from a stationary phase culture as described e.g. in Chen et al., 2011(Chen X, Zhang M, Zhou C, Kallenbach N R, Ren D. 2011. Control of bacterial persister cells by Trp/Arg-containing antimicrobial peptides. Appl Environ Microbiol 77:4878-4885.). Briefly, an overnight culture of P. aeruginosa PA14 and PA1255 (a cystic fibrosis isolate) was inoculated each in 50 ml 1:20 Trypticase Soy Broth (TSB). After 48 h of growth at 37° C., the culture was treated with ofloxacin at a final concentration of 10 μg/ml (5× MIC) for 5 hours at 37° C., while shaking at 200 rpm. The persister cells surviving this antibiotic treatment were isolated by centrifugation (5250 g, 15 min, 4° C.) and the cell pellet was washed twice with 20 mM HEPES buffer. Prior to treatment, cells were resuspended in the same volume of 20 mM HEPES buffer. A persister killing assay was performed as described e.g. by De Groote et al., 2009 (De Groote V N, Verstraeten N, Fauvart M, Kint C I, Verbeeck A M, Beullens S, Cornelis P, Michiels J. 2009. Novel persistence genes in Pseudomonas aeruginosa identified by high-throughput screening. FEMS Microbiol Lett 297:73-79). Briefly, a volume of 100 μl of the isolated persister fraction was mixed with polypeptides comprising peptidoglycan hydrolase or ciprofloxacin (final concentrations of 10× or 30× MIC against the respective strains), in the absence or presence of 0.5 mM EDTA-Na2 (final concentration) up to a final volume of 200 μl. Control treatments with 20 mM HEPES buffer, 0.5 mM EDTA or ofloxacin (30×and 10× MIC) were performed in parallel. The mixtures were shaken (200 rpm) for lh at 37° C. Treated persisters where washed twice with 20 mM HEPES buffer and appropriate dilutions were plated on TSB agar plates and incubated at 37° C. The number of persisters was determined after 72 h incubation to allow complete resuscitation of all surviving persisters. Each experiment was independently repeated at least 3 times.
(§1) Planktonic persister cells were isolated from a stationary-phase culture as described previously (Liebens V, Defraine V, Van der Leyden A, De Groote V N, Fierro C, Beullens S, Verstraeten N, Kint C, Jans A, Frangipani E, Visa P, Marchal K, Versées W, Fauvart M, Michiels J. 2014. A putative de-N-acetylase of the PIG-L superfamily affects fluoroquinolone tolerance in Pseudomonas aeruginosa. Pathogen. Dis. 71:39-54.) with minor modifications. An overnight culture of P. aeruginosa PA14, PAl255 (a cystic fibrosis isolate), Escherichia coil UTI-89 (isolate from chronic urinary tract infection) and Acinetobacter baumannii RUH134 (reference strain for global clone 2) was diluted 100×in 50 ml 1:20 Trypticase soy broth (TSB). After overnight growth at 37° C., the cultures were treated with either 10 μg/ml ofloxacin (P. aeruginosa strains), 200 μg/ml tobramycin (A. baumannii) or 200 μg/ml amikacin (E. coli) for 5 h at 37° C., while shaking at 200 rpm. The antibiotic concentrations were chosen to allow only persister cells to survive, based on previous time-kill curves. The persister fractions were isolated by centrifugation (5,250× g for 15 min at 4° C.), and the cell pellet was washed twice with 20 mM HEPES (pH 7.4). Prior to treatment, the cells were resuspended in a ten-fold reduced volume of 20 mM HEPES (pH 7.4) to concentrate the persisters.
A persister killing assay was performed as described previously (Liebens et al., 2014), with minor modifications. […]

[3] = system: E. coli UTI-89 persisters; assay: Persister killing assay, isolated persister fraction of E. coli UTI-89 (chronic urinary tract infection isolate); assay type: cell-based, Escherichia coli; details: 10× MIC
From the text: as §1
A persister killing assay was performed as described previously (Liebens et al., 2014), with minor modifications. A volume of 100 μl of the isolated persister fraction was mixed with either the polypeptide according to SEQ ID NO: 124, 125, 126 or ciprofloxacin (final concentrations of 10× or 30× MIC against the respective strains), in the absence or presence of 0.5 mM EDTA-Na2 (final concentration) up to a final volume of 200 μl. Control treatments with 20 mM HEPES (pH 7.4), 0.5 mM EDTA, or ofloxacin/tobramycin/amikacin (30× and 10× MIC) were performed in parallel. […] The number of persisters was determined after 72 h of incubation to allow for complete resuscitation of all surviving persisters.

[4] = 10× and 30× MIC, with and without 0.5 mM EDTA

O=C([O-])CN(CCN(CC(=O)[O-])CC(=O)O)CC(=O)O.[Na+].[Na+] [EDTA, reference compound]
bactericidal activity against isolated persisters ([1]; 0.5 mM EDTA alone): did not affect the persisters
bactericidal activity against isolated persisters ([2]; 0.5 mM EDTA alone): did not affect the persisters

O=C(O)c1cn(C2CC2)c2cc(N3CCNCC3)c(F)cc2c1=O [ciprofloxacin, reference compound]
bactericidal activity against isolated persisters [1, 4]: did not affect the persisters
killing of persisters ([3]; with and without 0.5 mM EDTA): did not completely kill persisters
bactericidal activity against isolated persisters [2, 4]: did not affect the persisters

B1: SEQ ID NO: 124: polypeptide comprising a fusion of Sarcotoxin IA (SEQ ID NO: 48) and KZ144 (SEQ ID NO: 11), active against vegetative cells of E. coli (protein)
chain: MKFFRKLKKSVKKRAKEFFKKPRVIGVSIPFGSKVLRKGDRGDEVCQLQTLLNLCGYDVGKPDGIFGNNTFNQVVKFQKDNCLDSDGIVGKNTWAELFSKYSPPIPYKTIPMPTANKSRAAATPVMNAVENATGVRSQLLLTFASIESAFDYEIKAKTSSATGWFQFLTGTWKTMIENYGMKYGVLTDPTGALRKDPRISALMGAELIKENMNILRPVLKREPTDTDLYLAHFFGPGAARRFLTTGQNELAATHFPKEAQANPSIFYNKDGSPKTIQEVYNLMDGKVAAHRKLEHHHHHH
modifications: SarcotoxinIA-KZ144his
killing of persisters ([3]; with 0.5 mM EDTA): completely eradicated
killing of persisters ([3]; without 0.5 mM EDTA): did not completely kill persisters
effect on persisters ([2]; 30× MIC, with 0.5 mM EDTA): complete eradication
reduction of the number of persisters ([2]; 30× MIC, with 0.5 mM EDTA): approximately 5 log units
reduction of the number of persisters in comparison to the 0.5 mM EDTA control ([2]; 30× MIC, without EDTA): approximately 2.3 log units
